Measured values from ChEMBL document CHEMBL4229333, “Effects of rigidity on the selectivity of protein kinase inhibitors” (Eur J Med Chem, 2018).
The source made the active and inactive calls. The rule behind the calls is not given here.

What was measured:
[1] = biological target: NUAK family SNF1-like kinase 1 (Homo sapiens) (UniProt O60285); test: Inhibition of ARK5 (unknown origin) at 1 uM by mobility shift microfluidics platform based assay relative to control
[2] = biological target: Tyrosine-protein kinase JAK2 (Homo sapiens) (UniProt O60674); test: Inhibition of JAK2 (unknown origin) at 1 uM by mobility shift microfluidics platform based assay relative to control
[3] = biological target: Dual specificity protein kinase CLK1 (Homo sapiens) (UniProt P49759); test: Inhibition of CLK1 (unknown origin) at 1 uM by mobility shift microfluidics platform based assay relative to control
Chain of Dual specificity protein kinase CLK1 (Homo sapiens) (P49759 whole entry, looked up): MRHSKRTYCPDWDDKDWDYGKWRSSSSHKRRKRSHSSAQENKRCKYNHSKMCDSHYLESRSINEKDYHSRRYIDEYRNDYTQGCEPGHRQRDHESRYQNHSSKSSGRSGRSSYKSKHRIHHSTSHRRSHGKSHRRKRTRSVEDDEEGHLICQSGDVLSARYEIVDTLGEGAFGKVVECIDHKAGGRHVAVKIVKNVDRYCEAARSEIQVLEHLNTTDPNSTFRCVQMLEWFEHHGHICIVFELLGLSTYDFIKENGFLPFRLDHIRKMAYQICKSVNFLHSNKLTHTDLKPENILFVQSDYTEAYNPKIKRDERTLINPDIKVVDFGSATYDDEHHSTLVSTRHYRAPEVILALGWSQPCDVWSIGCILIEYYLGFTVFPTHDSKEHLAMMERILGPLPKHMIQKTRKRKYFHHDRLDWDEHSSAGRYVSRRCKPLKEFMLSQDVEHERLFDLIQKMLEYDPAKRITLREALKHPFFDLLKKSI

[4] = biological target: Serine/threonine-protein kinase 25 (Homo sapiens) (UniProt O00506); test: Inhibition of STK25 (unknown origin) at 1 uM by mobility shift microfluidics platform based assay relative to control
Chain of Serine/threonine-protein kinase 25 (Homo sapiens) (O00506 whole entry, looked up): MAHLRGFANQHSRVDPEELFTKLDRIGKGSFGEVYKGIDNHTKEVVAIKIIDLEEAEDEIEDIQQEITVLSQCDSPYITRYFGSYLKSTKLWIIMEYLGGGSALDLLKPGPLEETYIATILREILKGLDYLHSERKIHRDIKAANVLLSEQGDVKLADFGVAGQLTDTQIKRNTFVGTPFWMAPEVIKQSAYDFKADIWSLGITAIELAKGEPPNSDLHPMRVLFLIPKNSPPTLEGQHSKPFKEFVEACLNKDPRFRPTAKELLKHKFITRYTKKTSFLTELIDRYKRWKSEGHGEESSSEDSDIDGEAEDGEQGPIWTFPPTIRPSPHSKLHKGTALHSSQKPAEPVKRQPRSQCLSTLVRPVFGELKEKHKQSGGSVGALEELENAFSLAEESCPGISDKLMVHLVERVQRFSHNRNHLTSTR

[5] = biological target: Ephrin type-A receptor 5 (Homo sapiens) (UniProt P54756); test: Inhibition of EPH-A5 (unknown origin) at 1 uM by mobility shift microfluidics platform based assay relative to control
[6] = biological target: Protein kinase C iota type (Homo sapiens) (UniProt P41743); test: Inhibition of PKC-iota (unknown origin) at 1 uM by mobility shift microfluidics platform based assay relative to control
[7] = biological target: Angiopoietin-1 receptor (Homo sapiens) (UniProt Q02763); test: Inhibition of TIE2 (unknown origin) at 1 uM by mobility shift microfluidics platform based assay relative to control
Chain of Angiopoietin-1 receptor (Homo sapiens) (Q02763 whole entry): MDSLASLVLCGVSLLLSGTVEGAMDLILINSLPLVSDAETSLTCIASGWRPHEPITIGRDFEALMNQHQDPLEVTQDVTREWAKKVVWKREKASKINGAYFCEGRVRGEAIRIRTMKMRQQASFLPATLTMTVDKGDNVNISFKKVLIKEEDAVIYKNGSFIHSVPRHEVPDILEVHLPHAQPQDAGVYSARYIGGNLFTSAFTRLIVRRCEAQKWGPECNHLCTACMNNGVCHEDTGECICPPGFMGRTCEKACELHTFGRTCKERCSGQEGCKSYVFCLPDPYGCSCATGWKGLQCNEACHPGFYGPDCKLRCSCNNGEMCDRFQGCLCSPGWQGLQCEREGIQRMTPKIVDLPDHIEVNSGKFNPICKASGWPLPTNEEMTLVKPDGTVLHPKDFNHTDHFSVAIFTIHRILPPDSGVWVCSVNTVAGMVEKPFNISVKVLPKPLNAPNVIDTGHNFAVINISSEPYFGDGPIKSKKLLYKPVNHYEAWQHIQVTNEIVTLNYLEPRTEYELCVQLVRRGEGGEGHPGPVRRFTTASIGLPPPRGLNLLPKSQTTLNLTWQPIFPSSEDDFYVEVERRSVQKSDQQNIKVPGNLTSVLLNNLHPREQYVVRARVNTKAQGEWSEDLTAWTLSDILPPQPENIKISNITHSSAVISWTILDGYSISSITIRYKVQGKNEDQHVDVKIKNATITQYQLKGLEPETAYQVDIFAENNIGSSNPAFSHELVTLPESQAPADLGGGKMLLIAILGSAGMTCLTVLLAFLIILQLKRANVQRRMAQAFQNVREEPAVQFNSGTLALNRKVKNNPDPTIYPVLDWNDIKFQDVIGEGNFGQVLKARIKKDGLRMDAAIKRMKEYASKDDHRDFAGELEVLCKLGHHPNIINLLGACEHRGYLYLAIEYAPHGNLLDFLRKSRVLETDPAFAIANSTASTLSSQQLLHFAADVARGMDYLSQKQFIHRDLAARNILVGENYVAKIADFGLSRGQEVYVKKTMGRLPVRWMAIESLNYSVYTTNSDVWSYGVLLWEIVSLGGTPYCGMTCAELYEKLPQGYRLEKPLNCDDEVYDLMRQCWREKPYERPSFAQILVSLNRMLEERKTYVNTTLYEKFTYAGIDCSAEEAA

[8] = biological target: Serine/threonine-protein kinase PAK 6 (Homo sapiens) (UniProt Q9NQU5); test: Inhibition of PAK6 (unknown origin) at 1 uM by mobility shift microfluidics platform based assay relative to control
Chain of Serine/threonine-protein kinase PAK 6 (Homo sapiens) (Q9NQU5 whole entry, looked up, canonical isoform): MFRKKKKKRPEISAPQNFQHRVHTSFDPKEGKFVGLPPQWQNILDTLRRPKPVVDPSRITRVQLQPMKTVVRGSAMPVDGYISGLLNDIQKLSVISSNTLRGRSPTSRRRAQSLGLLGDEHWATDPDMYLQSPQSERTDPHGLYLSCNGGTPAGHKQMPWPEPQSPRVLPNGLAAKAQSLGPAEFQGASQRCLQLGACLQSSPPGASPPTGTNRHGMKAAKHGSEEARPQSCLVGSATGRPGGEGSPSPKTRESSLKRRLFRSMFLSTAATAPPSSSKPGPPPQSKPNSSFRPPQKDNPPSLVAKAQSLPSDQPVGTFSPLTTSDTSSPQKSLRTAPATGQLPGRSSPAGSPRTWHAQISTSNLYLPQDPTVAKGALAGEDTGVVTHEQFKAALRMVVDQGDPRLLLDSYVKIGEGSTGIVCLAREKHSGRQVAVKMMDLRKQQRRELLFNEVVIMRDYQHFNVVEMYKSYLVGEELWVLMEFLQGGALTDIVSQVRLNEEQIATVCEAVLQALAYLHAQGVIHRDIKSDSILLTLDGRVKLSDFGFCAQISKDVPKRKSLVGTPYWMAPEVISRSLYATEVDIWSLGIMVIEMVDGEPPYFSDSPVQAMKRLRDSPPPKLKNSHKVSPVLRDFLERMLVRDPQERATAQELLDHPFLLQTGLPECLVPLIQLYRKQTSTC

[9] = biological target: Casein kinase I isoform gamma-3 (Homo sapiens) (UniProt Q9Y6M4); test: Inhibition of CK1-gamma3 (unknown origin) at 1 uM by mobility shift microfluidics platform based assay relative to control
[10] = biological target: Tyrosine-protein kinase Lck (Homo sapiens) (UniProt P06239); test: Inhibition of LCK (unknown origin) at 1 uM by mobility shift microfluidics platform based assay relative to control
Bcr/Abl fusion protein = Bcr/Abl fusion protein (Homo sapiens, UniProt P00519); test: Inhibition of BCR-ABL (unknown origin) expressed in mouse BA/F3 cells assessed as reduction in ABL phosphorylation at Y412 residue incubated for 3 hrs by immunoblotting assay; type: cell-based
[11] = biological target: Tyrosine-protein kinase Lyn (Homo sapiens) (UniProt P07948); test: Inhibition of LYNB (unknown origin) at 1 uM by mobility shift microfluidics platform based assay relative to control
Chain of Tyrosine-protein kinase Lyn (Homo sapiens) (P07948 2-512 limits assumed): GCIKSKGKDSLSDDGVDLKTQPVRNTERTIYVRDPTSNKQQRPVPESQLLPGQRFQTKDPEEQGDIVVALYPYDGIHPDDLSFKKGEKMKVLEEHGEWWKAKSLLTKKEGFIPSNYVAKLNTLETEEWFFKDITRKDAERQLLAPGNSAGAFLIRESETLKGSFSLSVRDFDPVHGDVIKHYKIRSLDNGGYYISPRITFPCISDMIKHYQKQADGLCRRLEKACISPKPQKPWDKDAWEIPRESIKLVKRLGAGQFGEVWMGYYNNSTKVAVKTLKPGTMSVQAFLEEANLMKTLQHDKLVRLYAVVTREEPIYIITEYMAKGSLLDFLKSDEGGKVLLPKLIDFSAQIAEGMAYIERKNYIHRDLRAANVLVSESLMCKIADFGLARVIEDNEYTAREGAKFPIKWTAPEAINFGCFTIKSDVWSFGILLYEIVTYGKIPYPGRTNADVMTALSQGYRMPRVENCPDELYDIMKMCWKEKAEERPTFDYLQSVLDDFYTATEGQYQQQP

[12] = biological target: Cyclin-dependent kinase 2 (Homo sapiens) (UniProt P24941); test: Inhibition of CDK2 (unknown origin) at 1 uM by mobility shift microfluidics platform based assay relative to control
[13] = biological target: Phosphatidylinositol 4,5-bisphosphate 3-kinase catalytic subunit alpha isoform (Homo sapiens) (UniProt P42336); test: Inhibition of PI3K-alpha (unknown origin) at 1 uM by mobility shift microfluidics platform based assay relative to control
Chain of Phosphatidylinositol 4,5-bisphosphate 3-kinase catalytic subunit alpha isoform (Homo sapiens) (P42336 whole entry, canonical isoform): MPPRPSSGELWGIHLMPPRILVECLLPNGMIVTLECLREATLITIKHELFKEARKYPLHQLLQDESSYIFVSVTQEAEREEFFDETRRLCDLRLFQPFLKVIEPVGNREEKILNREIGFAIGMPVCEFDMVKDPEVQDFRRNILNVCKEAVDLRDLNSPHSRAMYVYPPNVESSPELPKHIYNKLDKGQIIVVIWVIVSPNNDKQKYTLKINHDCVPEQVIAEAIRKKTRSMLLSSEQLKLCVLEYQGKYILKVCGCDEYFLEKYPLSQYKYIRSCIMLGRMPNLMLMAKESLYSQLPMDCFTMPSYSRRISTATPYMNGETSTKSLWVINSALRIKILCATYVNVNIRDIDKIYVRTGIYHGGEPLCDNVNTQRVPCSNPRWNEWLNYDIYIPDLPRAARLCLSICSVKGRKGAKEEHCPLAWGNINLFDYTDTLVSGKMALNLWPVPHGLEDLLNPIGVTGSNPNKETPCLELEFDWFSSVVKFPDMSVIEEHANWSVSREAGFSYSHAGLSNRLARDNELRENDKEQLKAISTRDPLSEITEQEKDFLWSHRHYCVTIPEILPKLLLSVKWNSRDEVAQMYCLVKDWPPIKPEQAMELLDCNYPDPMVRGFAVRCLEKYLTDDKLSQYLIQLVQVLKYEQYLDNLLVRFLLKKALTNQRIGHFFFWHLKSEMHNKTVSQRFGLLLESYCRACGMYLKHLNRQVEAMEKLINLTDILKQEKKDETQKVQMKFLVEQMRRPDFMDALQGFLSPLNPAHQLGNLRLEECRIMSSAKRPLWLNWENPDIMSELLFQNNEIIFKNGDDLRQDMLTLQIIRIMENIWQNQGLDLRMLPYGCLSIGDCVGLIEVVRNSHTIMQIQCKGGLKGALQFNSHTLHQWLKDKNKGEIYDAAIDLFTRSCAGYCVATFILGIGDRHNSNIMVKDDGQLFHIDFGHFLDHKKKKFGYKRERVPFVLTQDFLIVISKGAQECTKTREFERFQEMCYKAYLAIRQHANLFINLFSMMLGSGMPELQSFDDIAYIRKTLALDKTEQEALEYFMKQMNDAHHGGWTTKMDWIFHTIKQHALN

[14] = biological target: MAP kinase-activated protein kinase 5 (Homo sapiens) (UniProt Q8IW41); test: Inhibition of PRAK (unknown origin) at 1 uM by mobility shift microfluidics platform based assay relative to control
Chain of MAP kinase-activated protein kinase 5 (Homo sapiens) (Q8IW41 whole entry): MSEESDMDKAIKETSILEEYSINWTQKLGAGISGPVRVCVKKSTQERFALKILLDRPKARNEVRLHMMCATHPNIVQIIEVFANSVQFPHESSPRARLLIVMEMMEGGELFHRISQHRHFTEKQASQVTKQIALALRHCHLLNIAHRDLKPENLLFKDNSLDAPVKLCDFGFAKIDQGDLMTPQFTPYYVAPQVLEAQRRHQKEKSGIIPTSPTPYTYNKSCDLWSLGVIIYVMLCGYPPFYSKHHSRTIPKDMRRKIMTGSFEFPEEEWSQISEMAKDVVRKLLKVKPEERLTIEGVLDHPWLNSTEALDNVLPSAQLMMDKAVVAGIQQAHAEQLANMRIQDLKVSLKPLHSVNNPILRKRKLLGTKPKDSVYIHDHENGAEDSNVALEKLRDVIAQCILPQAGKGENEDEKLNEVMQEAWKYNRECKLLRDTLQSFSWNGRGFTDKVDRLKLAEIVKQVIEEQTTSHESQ

[15] = biological target: Cyclin-T1/Cyclin-dependent-like kinase 5 (Homo sapiens) (UniProt Q00535+O60563); test: Inhibition of CDK5/cyclin T1 (unknown origin) at 1 uM by mobility shift microfluidics platform based assay relative to control; type: protein-complex assay
[16] = biological target: T1, Tyrosine-protein kinase ABL1 (Homo sapiens, UniProt P00519); test: Inhibition of ABL (unknown origin) by phosphocellulose paper disk assay
[17] = biological target: T1, Tyrosine-protein kinase ABL1; test: Inhibition of ABL (unknown origin) at 30 nM by phosphocellulose paper disk assay
[18] = biological target: Ribosomal protein S6 kinase alpha-5 (Homo sapiens) (UniProt O75582); test: Inhibition of MSK1 (unknown origin) at 1 uM by mobility shift microfluidics platform based assay relative to control

| inhibition [1] | inhibition [2] | inhibition [3] | inhibition [4] | inhibition [5] | inhibition [6] | inhibition [7] | inhibition [8] | inhibition [9] | inhibition [10] | IC50 (Bcr/Abl fusion protein) | inhibition [11] | inhibition [12] | inhibition [13] | inhibition [14] | inhibition [15] | IC50 [16] | inhibition [17] | inhibition [18] | Compound |
| --- | --- | --- | --- | --- | --- | --- | --- | --- | --- | --- | --- | --- | --- | --- | --- | --- | --- | --- | --- |
| 14% | 77% | 2% | -5% | 100% | -3% | 96% | -1% | 2% | 100% | 7.5 nM | 100% | 3% | 36% | -1% | 5% | – | – | – | CC(C)n1nc(C#Cc2cccc(NC(=O)c3cccc(C(F)(F)F)c3)c2)c2c(N)ncnc21 |
| 1% | 3% | -1% | 3% | 95% | 2% | 61% | 3% | – | 85% | – | 94% | 1% | -8% | 7% | -2% | 3 nM | inactive | 5% | CC(C)n1nc(C#Cc2cccc3cc(-c4cccc(C(F)(F)F)c4)ncc23)c2c(N)ncnc21 |
